Laboratory results reported in a melting point compilation (Tetko et al.; mined from patent text by program, amines drawn as free bases though some values may be those of a salt).

Row | SMILES | melting point
1 | Cc1cc(-c2c[nH]c(C)n2)ccn1 | 115 to 117 °C
2 | CCOC(=O)C1=C(C)NC(N)=C(C(=O)OCC)C1c1ccccc1OC (configuration not stated) | 170 °C
3 | Nc1nc2c(c(=O)n1N)Cc1nc(N)n(N)c(=O)c1C2 | > 300 °C
4 | CCOC(=O)C(CC(=O)c1ccccc1C)(NC(C)=O)C(=O)OCC | 146 to 147 °C
5 | COC(=O)C1=C(C)NCC(C)(C(=O)OC)C1c1ccccc1C=C[Si](C)(C)C (configuration not stated) | 148 to 150 °C
6 | N#CC(c1ccc(Cl)c(Cl)c1)c1c(Cl)cc([N+](=O)[O-])cc1Cl (configuration not stated) | 171 to 172 °C
7 | CCCc1nc2c(N)nc3ccccc3c2n1CCC(=O)NC | 177 to 178 °C
8 | CSc1ccc(F)c(C#N)c1 | 61.7 to 62.7 °C
9 | O=C(O)[C@H](CO)NC(=O)[C@@H]1CS[C@H](c2ccccc2O)N1C(=O)CCS | 140 to 145 °C
10 | O=C(Nc1ccc(Cl)cc1)N(CCCN1CCC(Cc2ccccc2)CC1)c1ccc(Cl)c(Cl)c1 | 128 to 131 °C
11 | c1ccc(CN2CCN(Cc3n[nH]c4ccccc34)CC2)cc1 | 130 to 131 °C
12 | CSc1cc2c(cc1C(F)(F)F)N(C(=O)Nc1cccc(C(=O)O)c1)CC2 | > 200 °C
13 | CC(C(=O)OC1(C)CCCCC1)c1ccc2nc(N)sc2c1 (configuration not stated) | 165 to 167 °C
14 | CC(Br)C(=O)NC(C)(C)c1ccccc1 (configuration not stated) | 102 to 103 °C
15 | CCCN(CCC)c1c(CC)nn2c(-c3cnc(N(C)C)cc3C)cccc12 | 98.5 to 100 °C
16 | CS(=O)(=O)c1ccc2[nH]cc(CCN)c2c1 | 134 to 138 °C
17 | COc1ccnc2[nH]cc(C(C)=O)c12 | > 210 °C
18 | CN(C)c1ccc2c(n1)C(c1ccccc1Cl)=NCc1nncn1-2 | 240 to 242 °C
19 | N#Cc1ccc(N)cc1N | 102 to 103 °C
20 | CC1(C)C(=O)Nc2ccc(C#N)cc2N(C2CC2)C1=O | 252 to 253 °C

Row | SMILES | melting point
21 | Cn1nccc1-n1ccnc1S(N)(=O)=O | 230 to 233 °C
22 | O=C1C(Cc2ccncc2)c2ccccc2N1N1CCCCC1 (configuration not stated) | 83 to 86 °C
23 | CCCCCCCOc1ccc2c(c1)N(CCCN1CCC(CCO)CC1)c1cccc(S(=O)(=O)N(C)C)c1S2 | 80 °C
24 | O=C1CC2CCCC(CC(=O)OCc3ccccc3)C2N1 (configuration not stated) | 89 to 90 °C
25 | O=C1NC(=O)C(=Cc2ccccc2)C(=O)N1 | > 258 °C
26 | C#CCOCCn1cnc2cnc3ccccc3c21 | 124 to 126 °C
27 | C=CCn1c(=O)c([N+](=O)[O-])c(O)c2ccccc21 | 125 to 127 °C
28 | O=C(O)CNC(=O)Nc1ccc(CC(=O)OCc2ccccc2)cc1 | 192 °C
29 | CC1COc2c(N3CCC(n4cncn4)C3)c(F)cc3c(=O)c(C(=O)O)cn1c23 (single isomer, unassigned; (-)) | 229 to 231 °C
30 | FC(F)(F)c1cccc(-c2ncc(CCl)c(C3CC3)n2)c1 | 92 to 95 °C
31 | FC(F)(F)c1nnc(Sc2ccc(Cl)c(Cl)c2)s1 | 46 °C
32 | Nc1cc(Cl)cc(NCCO)c1[N+](=O)[O-] | 183 °C
33 | CC(C)(C)OC(=O)N(O)C(=O)[C@H](N)COCc1ccccc1 | 128 to 130 °C
34 | COc1cccc(C2CCC(O)O2)c1 (configuration not stated) | 76.5 to 78 °C
35 | O=[N+]([O-])c1cc(CS)cc(O)c1O | 179 to 185 °C
36 | CN(C)CCN(c1ccc(N)cc1)S(C)(=O)=O | 147 to 148 °C
37 | COC(=O)[C@@](C#N)(CCN(C)C)C(c1ccccc1OC)c1cccc2ccccc12 (single isomer, unassigned) | 142 to 144 °C
38 | COC(=O)C1Cc2cc(OC)ccc2N1 (racemic) | 59 to 61 °C
39 | CC(C)(C)OC(=O)Nc1ccc(CCO)cc1 | 104 to 105 °C
40 | O=S1(=O)C=CC=CC=N1 | 144 to 146 °C

Row | SMILES | melting point
41 | CCN(CC)CCn1nc2c3c(c(N)ccc31)Oc1ccccc1-2 | 78 to 80 °C
42 | CC(C)(C)OC(=O)NCCCBr | 40 °C
43 | O=C(O)C[C@H]1C[C@H](C(=O)O)Nc2cc(Cl)cc(Cl)c21 (relative stereo) | 229 to 231 °C
44 | CNC(=O)c1ccccc1-c1cc(C)no1 | 120 to 122 °C
45 | Clc1cccc(Cl)c1-c1nsnc1OCCBr | 60 to 61 °C
46 | CCOC(=O)CC12CC(c3ccccc31)c1ccccc12 | 81 to 84 °C
47 | COc1nc(C)nc(C(F)(F)F)c1I | 44 to 45 °C
48 | N#Cc1ccc(C=O)c(-c2ccco2)c1 | 125 °C
49 | NN(c1ccccc1)c1cc(Cl)nc(Cl)n1 | 114 to 116 °C
50 | CCOC(=N)c1sc2cc(Cl)ccc2c1O | 226 °C
51 | CCN(CC)CC1CCCCN1CC(=O)N1c2ccccc2NC(=O)c2cscc21 (configuration not stated) | 163 to 164 °C
52 | O=C(NCP(=O)(O)c1ccccc1)c1ccccc1 | 158 to 160 °C
53 | N#Cc1ccc2c(c1)CC[C@@H]1CC(=O)CC[C@@]21Cc1ccccc1 | 128 to 129 °C
54 | NCc1nc2ccccc2o1 | 46.5 to 47.5 °C
55 | CCOC(=O)CCc1cc(C(=O)c2ccc(C(=O)OCC)cc2)ccc1OCCCCCBr | 76.5 to 78 °C
56 | COc1cccc(CC(=O)Nc2cc(Cl)c(Cl)cc2[N+](=O)[O-])c1 | 122 to 124 °C
57 | COCCOc1ccc(NC=C(C#N)C(=O)Nc2cc(OC)c(Cl)cc2Cl)cc1I | 209 to 210 °C
58 | CC1(C)CC(N(C=O)CCCCCCN(C=O)C2CC(C)(C)NC(C)(C)C2)CC(C)(C)N1 | 155 °C

Results, then the compound that gave them:

Row | melting point | SMILES
59 | 200 to 202 °C | COc1ccc(-c2nc3c(N)cccc3n2Cc2c(F)cccc2F)c(F)c1
60 | 216 to 219 °C | O=C1COc2cc(F)c(N3N=C4CCCCC4C3=O)cc2N1Cc1ccccn1 (configuration not stated)
61 | 185 to 187 °C | CC(Cl)(Cl)C(NC(=O)c1ccc(Cl)cc1)NC(=NC#N)Nc1cccnc1 (configuration not stated)
62 | 215 to 218 °C | COc1cc2c(Nc3ccc(Cl)cc3F)ncnc2cc1OCc1ccccn1
63 | 150 °C | COC(=O)c1c(-c2ccccc2)oc2c(CCl)cccc2c1=O
64 | 125 to 133 °C | COc1cc(C(=O)NS(=O)(=O)c2ccccc2C)ccc1Cc1cn(C)c2ccc(CCNC(=O)N3CCOCC3)cc12
65 | 120 °C | Cc1ccc(-c2c(Cl)nc(-c3cccs3)nc2Cl)cc1
66 | 222 to 224 °C | COc1ccc2c(C(=S)N(C)CC(N)=O)c(F)ccc2c1C(F)(F)F
67 | 141 to 142 °C | O=C(NCc1ccc(F)cc1)c1ccnc(N2CCN(Cc3ccccn3)C2=O)c1
68 | > 260 °C | CC(=O)Nc1nc(N)nc(-c2ccc(S(=O)(=O)c3ccccc3)cc2)n1
69 | 253 to 254 °C | O=C1Nc2ccncc2Oc2ccccc21
70 | 117 to 121 °C | O=C(Cn1c(-c2ccc([N+](=O)[O-])cc2)ncc(NC(=O)OCc2ccccc2)c1=O)NC(Cc1ccccc1)C(=O)C(F)(F)F (configuration not stated)
71 | 104 to 105 °C | CCCOc1c(Cl)cc(Cl)c2c(=O)c3ccccc3sc12
72 | 159 to 160 °C | COc1cc(OC)cc(-c2ncn(C)c2-c2cc(F)c(F)c(F)c2)c1
73 | 229 to 231 °C | COc1ccc(-c2cnn3cc(C(=O)O)cnc23)cc1OC
74 | 164 to 166 °C | COc1ccc(C(=O)c2cccc3c2CCC3C(N)=O)cc1 (configuration not stated)
75 | 113 to 115 °C | COc1c(-c2ccc(S(C)(=O)=O)cc2)cnn(-c2ccc(F)c(F)c2)c1=O
76 | 100 to 101 °C | CCOC(=O)c1nn(-c2ccc(F)cc2)c2c1CCCC2
77 | 198 to 203 °C | COc1ccccc1NC(=O)Nc1nc(N2CCOCC2)nc(N(CCC(=O)O)Cc2ccc(Cl)c(Cl)c2)n1
78 | 134 to 136 °C | CCn1c(=O)n(OCc2ccccc2)c(=O)c2cc(F)c(N3CCN(C)CC3)cc21
79 | 152 to 154 °C | CC(NC(=O)CCc1ccc(C(C)(C)C)cc1)c1ccc(NS(C)(=O)=O)c(F)c1 (configuration not stated)
80 | 197 to 198 °C | Cc1ccc(-c2c(-c3ccc(S(C)(=O)=O)cc3)[nH]c3ccccc23)cc1

Row | melting point | SMILES
81 | 178 to 180 °C | N#Cc1nn(-c2c(Cl)cc(-c3ccc(C(F)(F)F)cc3)cc2Cl)c(N)c1Br
82 | 186 °C | COC(=O)C1(NC(=O)Cc2cc(-c3ccc(Cl)cc3)ccc2C)CCC(F)(F)CC1
83 | 204 to 205 °C | CCCCc1nc2cccc(C(=O)OC)c2n1Cc1ccc(-c2ccccc2-c2n[nH]c(=O)o2)cc1
84 | 158 to 160 °C | COc1ccc(-c2cccc3c2COC3=O)c2c1OCCO2
85 | 82 to 83 °C | CON(C)C(=O)Nc1ccc(OCCc2ccc(C)cc2)cc1
86 | 193 to 196 °C | O=C(Nc1ccc(-n2nc(C(F)(F)F)cc2C2CC2)c(F)c1)c1c(F)cccc1F
87 | 238 to 240 °C | CN1CCC2(CCc3c(C4=C(c5cn(C)c6ccccc56)C(=O)OC4=O)c4ccccc4n3C2)C1 (configuration not stated)
88 | 89.6 °C | CC(=O)N1CCN2C(=O)N(c3cc(Cl)cc(Cl)c3)C(=O)C2(Cc2ccc(Br)cc2)C1 (configuration not stated)
89 | 266 to 267 °C | Cc1csc(-c2ccc(C3=NNC(=O)CC3)cc2)n1
90 | 125 to 126 °C | COc1cc(OCCCCc2cn(-c3ccc(C(F)(F)F)cn3)nc2C(C)C)ccc1CCC(=O)O
91 | 100 to 101 °C | COC(=O)c1ccc(Cl)cc1NC(=O)Cc1cccc(C#Cc2ccccc2)c1
92 | 112 to 116 °C | COc1ccc(N2CCN(c3c(C)c(C)c4c(c3C)C(N3CCN(Cc5ccccc5)CC3)C(C)(C)O4)CC2)cc1 (configuration not stated)
93 | 198 to 199 °C | O=C(O)c1cccc(-c2ccc3c(c2)N(Cc2cc(Cl)ccc2Cl)CC3)c1
94 | 68 to 70 °C | Cc1cc(C)cc(-c2cccc3ccccc23)c1
95 | > 300 °C | COc1c(-c2ccc3cc(NS(C)(=O)=O)ccc3c2)cc(N2CCCNC2=O)cc1C(C)(C)C
96 | 147 °C | COc1ccccc1C1=CC(N2CCN(Cc3ccc(C)cc3)CC2)=NC12C=CC(=O)C=C2
97 | 113 to 114 °C | C=CCOn1cc(C(=O)NCc2ccc(Cl)cc2)c(=O)c2ccccc21
98 | 129 to 130 °C | CC(C)NC(=O)c1nc(-c2ccccc2F)c(-c2ccc(=O)n(C(C)C)n2)s1
99 | 146 to 148 °C | C1=CCC2=c3cnc4ccccc4c3=NC2=C1
100 | 173 to 174 °C | O=C(c1ccccc1)c1cnn2c(-c3cccc(N4CCCC4=O)c3)ccnc12
101 | 251 to 252 °C | Nc1ccccc1C(=O)Nc1cc2c(cc1F)OCC(=O)N2
102 | 155 °C | COc1ccc(C2=NN(Cc3ccc([N+](=O)[O-])cc3)C(=O)SC2)cc1OC
